The values below come from publication PMC8803746, “Two experts and a newbie: [^18F]PARPi vs [^18F]FTT vs [^18F]FPyPARP—a comparison of PARP imaging agents” (European Journal of Nuclear Medicine and Molecular Imaging, 2021).

SMILES strings stand for the structures. Several values for one entry are separate records, joined by “and”; a condition that tells them apart may be missing. Equal values may be shown once. Read-outs that look alike come from different tables or passages of the source.

The nature of series [1]: Blood half-life, two-phase decay fit. In kind it is in vivo, NOD.CB17-Prkdc^scid/J mice. As to conditions: calculated with two-phase decay fit. How it is done:
All animal experiments were performed according to the German animal welfare act and approved by the local authorities (Regierungspräsidium Tübingen, R3/18). Animals were housed in individually ventilated cages (IVCs, 5 mice per cage) with bedding and enrichment, and food and water was provided ad libitum. Animals were kept under isoflurane anesthetic (1.5% in pure oxygen, 1.5 l/min) during the experiments. In 1:1 ice-cold Matrigel (Thermo Scientific)/PBS, 1 × 10^7 cells were injected subcutaneously in the right shoulder area of 7-week-old female NOD.CB17-Prkdc^scid/J mice (n = 10 per tracer). After the xenografts reached a suitable size (302 ± 152 mm^3), mice were injected with 12.45 ± 0.87 MBq, 12.68 ± 0.39 MBq, and 12.94 ± 0.45 MBq, respectively, of [^18F]PARPi, [^18F]FPyPARP, and [^18F]FTT and subjected to 1-h dynamic (n = 7 per tracer) or 10-min static (n = 3 per tracer, 1-h resting uptake) PET imaging (Inveon D-PET, Siemens, Knoxville, TN, USA) with subsequent magnetic resonance (MR) anatomical scans using a 7-T Biospec 70/30 USR (Clinscan, Bruker Biospin MRI GmbH) and a T2-weighted spin echo sequence. Five mice of each dynamically acquired group underwent a second, 10-min static PET scan 2-h post-injection (p.i.). Mice were sacrificed by cervical dislocation, the collected organs were weighed, and the tissue uptake was determined by gamma-counting (WIZARD2). Liver and kidney tissue was frozen in Tissue-Tek (Labtech, East Sussex, Britain) and 20-µm slices were prepared for autoradiography. A storage phosphor screen (Molecular Dynamics, Caesarea, Israel) was exposed to the sections for 18 h and scanned at a resolution of 100 µm/px with a STORM phosphor imager (Molecular Dynamics). […]
Statistical analyses are represented as mean values ± standard deviation. […] Blood half-life was calculated using a two-phase decay fit in GraphPad Prism 8. p values < 0.05 were considered statistically significant according to the software (*p < 0.05, **p < 0.01, ***p < 0.001, ****p < 0.0001).

A short description of series [2]: Experimental logP and logD determination (1-octanol/water or PBS, gamma counter). The settings on record: experimentally determined; for logD: 1-octanol/PBS; for logP: 1-octanol/water. Format: physicochemical. How it is done: One microliter radiotracer solution (0.4 MBq) was added to a mixture of 500 µl water or PBS and 500 µl 1-octanol. After thorough shaking, the suspension was shortly centrifuged for phase separation, samples were drawn from each phase, and radioactivity concentration was measured in a gamma counter (WIZARD2, PerkinElmer, Waltham, MA, USA).

A further series has as its system HCC1937 xenografts. Briefly: PET/MR imaging and ex vivo biodistribution in xenograft-bearing mice. The settings on record: for Xenograft uptake (TACs from dynamic PET): 1-h dynamic PET; for tumor-to-blood ratio (TBR) / tumor-to-muscle ratio (TMR): ex vivo biodistribution; for tumor-to-blood ratio (TBR) / tumor-to-muscle ratio (TMR) / liver-to-kidney ratio (LKR): mean value; for Renal clearance / bladder uptake in PET images: i.v., dynamic PET, minutes 50-60. Set-up: species or system NOD.CB17-Prkdc^scid/J mice. How it is done:
All animal experiments were performed according to the German animal welfare act and approved by the local authorities (Regierungspräsidium Tübingen, R3/18). Animals were housed in individually ventilated cages (IVCs, 5 mice per cage) with bedding and enrichment, and food and water was provided ad libitum. Animals were kept under isoflurane anesthetic (1.5% in pure oxygen, 1.5 l/min) during the experiments. In 1:1 ice-cold Matrigel (Thermo Scientific)/PBS, 1 × 10^7 cells were injected subcutaneously in the right shoulder area of 7-week-old female NOD.CB17-Prkdc^scid/J mice (n = 10 per tracer). After the xenografts reached a suitable size (302 ± 152 mm^3), mice were injected with 12.45 ± 0.87 MBq, 12.68 ± 0.39 MBq, and 12.94 ± 0.45 MBq, respectively, of [^18F]PARPi, [^18F]FPyPARP, and [^18F]FTT and subjected to 1-h dynamic (n = 7 per tracer) or 10-min static (n = 3 per tracer, 1-h resting uptake) PET imaging (Inveon D-PET, Siemens, Knoxville, TN, USA) with subsequent magnetic resonance (MR) anatomical scans using a 7-T Biospec 70/30 USR (Clinscan, Bruker Biospin MRI GmbH) and a T2-weighted spin echo sequence. Five mice of each dynamically acquired group underwent a second, 10-min static PET scan 2-h post-injection (p.i.). Mice were sacrificed by cervical dislocation, the collected organs were weighed, and the tissue uptake was determined by gamma-counting (WIZARD2). Liver and kidney tissue was frozen in Tissue-Tek (Labtech, East Sussex, Britain) and 20-µm slices were prepared for autoradiography. A storage phosphor screen (Molecular Dynamics, Caesarea, Israel) was exposed to the sections for 18 h and scanned at a resolution of 100 µm/px with a STORM phosphor imager (Molecular Dynamics). PET image reconstruction and correlation with MR images was performed with Inveon Acquisition Workplace and Inveon Research Workplace, respectively, using a user-defined dynamic framing and an ordered subset expectation maximization (OSEM3D) algorithm. Regions of interest (ROIs) were drawn according to the acquired MR images and co-registered with the PET data to obtain time-activity curves (TACs).
Statistical analyses are represented as mean values ± standard deviation. Analyses were performed using GraphPad Prism 9 and non-parametric t tests (comparison of two groups) and one-way ANOVA (comparison of more than two groups). Blood half-life was calculated using a two-phase decay fit in GraphPad Prism 8. p values < 0.05 were considered statistically significant according to the software (*p < 0.05, **p < 0.01, ***p < 0.001, ****p < 0.0001).

The next series concerns HCC1937 cells. Briefly: In vitro radiotracer uptake, acid wash. In kind it is cell-based, human. The settings on record: glycine-HCl in PBS 50 mM pH 2.8 vs medium. As to the method:
For the acid wash, cells were distributed in 96-well filter plates as described before and incubated with the radiotracer solution for 30 min at 37 °C. After an initial wash with 100 µl medium, cells were either washed twice (1: 100 µl, 2: 200 µl) with medium or with glycine–HCl in PBS (50 mM, pH 2.8) followed by a final wash with 200 µl medium and measured in a gamma counter.

Series [3] deals with ABCB1 (encoding MDR1 P-glycoprotein). The arrangement: method as in PMID 24700236. The settings on record: cited from earlier work.
On the set-up of series [4]: method as in Lynparza monograph, AstraZeneca. The settings on record: reported value; ref Lynparza monograph, AstraZeneca; cited from earlier work.
Details of series [5]: method as in PMID 32245901. The settings on record: cited from earlier work.
Details of series [6]: method as in PMID 30389822. The settings on record: cited from earlier work.
Details of series [7]: method as in PMID 30389822. As to conditions: cited from earlier work. This is another data set of the same source.
Series [8] in a line: Serum stability analysis in mouse serum. Format: in vitro ADME. The settings on record: C57BL/6 J mouse serum, 37 °C, over 240 min, HPLC. How it is done:
(§1) Serum stability was assessed by mixing [^18F]FPyPARP solution 1:1 with C57BL/6 J mouse or human (blood type AB + , Sigma-Aldrich, Steinheim, Germany) serum. After 0-, 30-, 60-, 120-, and 240-min incubation at 37 °C, samples were drawn and the proteins were precipitated by adding ice-cold MeCN to a final concentration of 50%. The supernatant after centrifugation (12,100 × g, 90 s) was analyzed by HPLC as described for radiotracer quality control.

A short description of series [9]: Serum stability analysis in human serum. The settings on record: 37 °C, over 240 min, HPLC. In kind it is in vitro ADME. As to the method: as §1

A word on the logD: it is the decadic logarithm of the distribution of all forms, ionised or not, between an organic phase and buffer at a given pH. By logP is commonly meant the decadic logarithm of the partition coefficient of the neutral form, usually between octanol and water. Read a low logP as lower lipophilicity. Regarding `O=C1NCCn2c(-c3ccc(OCC[18F])cc3)nc3cccc1c32` [[^18F]FTT], in [1], the Blood half-life is 2.1 ± 0.5 min. For the same molecule, in series [2], the log distribution coefficient (logD) came to 1.94 and the logP stood at 1.1. Moreover, in the series on HCC1937 xenografts, the “Xenograft uptake (TACs from dynamic PET)” value is given as “higher overall xenograft uptake” and the “Renal clearance / bladder uptake in PET images” value (shortened to “Renal clearance / bladder uptake”) was “no noticeable renal clearance”. In addition, the “tumor-to-liver ratio (TLR)” value in the series with HCC1937 xenografts (1.5 h and 2.5 h p.i.) is “significantly higher at both time points”. Besides, in the series on HCC1937 xenografts (2.5 h p.i.), the “tumor-to-blood ratio (TBR)” value is 2.46 ± 0.35 and 2.46; the “tumor-to-muscle ratio (TMR)” value turned out to be 3.42. Also, the “Radiotracer uptake after acidic wash compared to medium wash” value in the series on HCC1937 cells is on record as “No difference”.
As for `O=C(c1cc(Cc2n[nH]c(=O)c3ccccc23)ccc1F)N1CCN(C(=O)C2CC2)CC1` [olaparib], the Efflux transporter substrate result in series [3] was “efflux transporter of olaparib”. Further, the log distribution coefficient (logD) in series [4] is listed as 1.49.
`O=C(c1ccc([18F])cc1)N1CCN(C(=O)c2cc(Cc3n[nH]c(=O)c4ccccc34)ccc2F)CC1` [[^18F]PARPi]: the Blood half-life in series [1] was 3 ± 0.7 min. Also, in series [2], the log distribution coefficient (logD) came to 2.09 and the logP is 2.09. Besides, in the series on HCC1937 xenografts, the “Xenograft uptake (TACs from dynamic PET)” value is on record as “within the same range” and the “Renal clearance / bladder uptake” value was “some of the animals showed renal excretion”. Also, the “tumor-to-muscle ratio (TMR)” value in the series with HCC1937 xenografts (1.5 h p.i.) came out at 5.3. Also, in the series with HCC1937 xenografts (2.5 h p.i.), the “tumor-to-blood ratio (TBR)” value is reported as 3.41 ± 0.83 and the “liver-to-kidney ratio (LKR)” value amounted to 1.37. Moreover, in the series with HCC1937 cells, the “Radiotracer uptake after acidic wash compared to medium wash” value is “significantly higher uptake”. Besides, the “Time of first appearance of a radiometabolite” value in series [5] (first-in-human clinical studies) is listed as 25 min. Besides, in series [5] (in humans), the Renal clearance is on record as 30%.
As to `O=C(c1cc(Cc2n[nH]c(=O)c3ccccc23)ccc1[18F])N1CCN(C(=O)C2CC2)CC1` [[^18F]olaparib], the Clearance route result in [6] is “only shows hepatobiliary clearance”. For the same molecule, the “calculated logP” value in series [7] was 2.02.
For the molecule `O=C(c1ccc(F)nc1)N1CCN(C(=O)c2cc(Cc3n[nH]c(=O)c4ccccc34)ccc2F)CC1` [[^18F]FPyPARP, 4-(4-Fluoro-3-(4-(6-fluoronicotinoyl)piperazine-1-carbonyl)benzyl)phthalazine-1(2H)-one], the Blood half-life in [1] was 2.6 ± 1.4 min. Further, in series [2], the logD turned out to be 1.16 and the logP was found to be 1.16. Besides, in the series on HCC1937 xenografts, the “Xenograft uptake (TACs from dynamic PET)” value was “within the same range” and the “Renal clearance / bladder uptake” value is “all animals exhibiting strong radioactive signal in the bladder”. In the series on HCC1937 xenografts (1.5 h p.i.), the “tumor-to-muscle ratio (TMR)” value is 1.99. Also, the “Change of liver-to-kidney ratio between the 1.5 and 2.5 h time points” value with HCC1937 xenografts (1.5 h vs 2.5 h p.i.) is listed as “decreased”. Moreover, in the series on HCC1937 xenografts (2.5 h p.i.), the “tumor-to-blood ratio (TBR)” value is 3.99 ± 0.99 and 3.99; the “tumor-to-muscle ratio (TMR)” value amounted to 2.46; the “liver-to-kidney ratio (LKR)” value is 0.60. Besides, in the series with HCC1937 xenografts (early time points, in direct comparison to [^18F]PARPi), the “Liver uptake (TACs)” value is recorded as “lower uptake values”. In [8], the Serum stability result was “no significant radiometabolites and good radiotracer stability over 240 min”. The Serum stability entry in series [9] was “no significant radiometabolites and good radiotracer stability over 240 min”. In addition, in the series on HCC1937 cells, the “Radiotracer uptake after acidic wash compared to medium wash” value is “No difference”.
